Source: US20140024653A1, “COMPOSITIONS AND METHODS FOR TREATING CANCER USING PI3K INHIBITOR AND MEK INHIBITOR” (priority 2011, published 2014)
Like-named read-outs stand apart in the source and are kept apart here.

Columns and labels:
[1] = system: human colon carcinoma HCT 116; assay: HCT116 tumor growth in fluorescence molecular tomography study; type: in vivo, SCID mice; conditions: (2a) 50 mg/kg oral daily day 11 to day 17; p=0.023
[2] = system: HCT116 tumor vascular permeability; assay: tumor vascular permeability, Evans Blue extravasation / Dextran-Fitc; type: in vivo, SCID mice; conditions: (2a) 50 mg/kg oral daily day 11 to day 13
Procedure: HCT116 tumor cells were implanted subcutaneously in the intra-scapular region in SCID mice. […] Each agent was given by oral route on a daily schedule. Tumor growth was monitored throughout the experiment by callipering the tumors. To quantify tumor vascular permeability, tumors were excised under ketamine/Xylazine (120/6 mg/kg ip) anesthesia at day 13, 4 hours post last treatment, 30 min after 0.5% Evans Blue iv injection, and 2 min post Dextran-Fitc 100 mg/kg iv injection. Tumors were then snap frozen, and 25 μm sections obtained for fluorescence quantification. Tumors sections were imaged with Icyte at 488 nm for vascular Dextran-Fitc determination and at 633 nm for Evans-Blue extravasation determination. Respective fluorescence were quantified as the sum of integral phantoms of fluorescence intensity and expressed as the mean ratio of Evans-Blue signal/Dextran-Fitc Signal.

[3] = system: human primary colon tumors CR-LRB-013P; assay: antitumor activity against subcutaneous CR-LRB-013P xenografts; type: in vivo
Procedure: The human primary colon carcinoma CR-LRB-013P tumor model was established by implanting (SC) small tumor fragments and was maintained in SCID female mice using serial passages.
(§1) Treatments were administered on measurable tumors. […] Mice were checked daily, and adverse clinical reactions noted.
(§2) Animal body weights included the tumor weight.
(§3) The primary efficacy end points are ΔT/ΔC, percent median regression, partial and complete regressions (PR and CR). Statistical analyses were performed on SAS system release 8.2 for SUN4 via Everstat V5 software and SAS 9.2 software. A probability less than 5% (p<0.05) was considered as significant.

[4] = chemical stability of dosing stock solution; type: physicochemical; conditions: in the dark at 4° C.
Procedure: Compound (2a) formulation was prepared in water for injection. The stock solution was chemically stable 7 days in the dark at 4° C. […] The pH of the final solution was 3. […]

[5] = system: human pancreatic MiaPaCa-2; assay: antitumor activity against subcutaneous MiaPaCa-2 xenografts; type: in vivo, nude mice; conditions: XL-147 50 mg/kg po QD, 21 days; 50 mg/kg
Procedure: The human pancreatic cancer cell line MiaPaCa-2 (American Type Culture Collection, Manassas Va.), was cultured in MEM medium containing 10% fetal bovine serum, 1% essential amino acid, 1% sodium pyruvate (Life Technologies, Carlsbad, Calif.). […] Cells were re-suspended in PBS (Life Technologies, Carlsbad, Calif.) and then mixed 1:1 with Matrigel (BD Biosciences, San Jose, Calif.). Cells were stored at 4° C. until implantation. MiaPaCa-2 cells (10×10^6 in a 200 μl PBS:Matrigel (1:1) suspension) were subcutaneously injected into the right flank area of female nude (Crl:NU-Foxn1nu) mice (6-8 weeks old, Charles River Laboratories, Wilmington, Mass.). All mice in this study were used according to the guidelines approved by the EMD-Serono Institutional Care and Animal Use Committee (IACUC), #07-003. Developing tumors located in the right flank area of female nude mice were measured over time with digital calipers. […] The remaining tumor-bearing mice were randomized into seven experimental groups (n=9), so that each group had the same mean tumor volume. […] The treatments began on the seventh day following implantation of the Miapaca-2 cells, which was designated as Day 0 for data evaluation purposes. […] Body weights and tumor volumes were assessed twice per week post treatment initiation. […] Efficacy was determined by analyzing tumor volumes and the percent ΔT/ΔC (% ΔT/ΔC). Tumor volume was determined by using the tumor length (1) and width (w) measurements and calculating the volume with the equation 1*w^2/2. The length was measured along the longest axis of the tumor and width was measured perpendicular to that length. The mean percent of actual tumor growth inhibited by the treatments was calculated as follows: [% ΔT/ΔC=(([…]))×100%], where TV=tumor volume, f=final, i=initial and Ctrl=control group. Tolerability was assessed by regarding percent body weight difference during the treatment period. Percent body weight difference was calculated as follows: [% Body weight difference=(BWc-BWi)/BWi×100%], where BW=body weight, c=current, i=initial.

[6] = system: PC-3, U87-MG, A2058, WM-266-4 and MCF7 xenografts; conditions: oral administration alone; PTEN-deficient PC-3, U87-MG, A2058, WM-266-4 or PIK3CA mutated MCF7 xenografts; cited from earlier work
[7] = system: human colon carcinoma HCT 116
Procedure: Mice were over 18 g at start of treatment after an acclimatization time of at least 5 days. […] The mice were housed on a 12 hours light/dark cycle.
Human colon carcinoma HCT 116 cells were purchased at American Type Culture Collection [(ATCC), Rockville, Md., USA). The HCT 116 cells were cultured in Dulbecco's modified Eagle's medium (DMEM) (Invitrogen).
The animals required to begin a given experiment were pooled and implanted monolaterally on day 0. Treatments were administered on measurable tumors. The solid tumors were allowed to grow to the desired volume range (animals with tumors not in the desired range were excluded). The mice were then pooled and unselectively distributed to the various treatment and control groups. […] The dosages are expressed in mg/kg, based on the body weight at start of therapy. Mice were checked daily, and adverse clinical reactions noted. Each group of mice was weighed as a whole daily until the weight nadir was reached. Then, groups were weighed once to thrice weekly until the end of the experiment. Tumors were measured with a caliper 2 to 3 times weekly until final sacrifice for sampling time, tumor reached 2000 mm^3 or until the animal died (whichever comes first). Solid tumor volumes were estimated from two-dimensional tumor measurements and calculated according to the following equation:
Changes in tumor volume for each treated (T) and control (C) group were calculated for each tumor by subtracting the tumor volume on the day of first treatment (staging day) from the tumor volume on the specified observation day. The median ΔT is calculated for the treated group, and the median ΔC is calculated for the control group. Then the ratio ΔT/ΔC is calculated and expressed as a percentage. The dose is considered as therapeutically active when ΔT/ΔC is lower than 40% and very active when ΔT/ΔC is lower than 10%.
The percent of tumor regression is defined as the % of tumor volume decrease in the treated group at a specified observation day compared to its volume on the first day of treatment. At a specific time point and for each animal, % regression is calculated. The median % regression is then calculated for the group using the following equation:
Partial regression: Regressions are defined as partial if the tumor volume decreases to 50% of the tumor volume at the start of treatment.
Complete regression: The CR is achieved when tumor volume=0 mm^3 (CR is considered when tumor volume cannot be recorded).

[8] = system: human primary colon tumors CR-LRB-009C; assay: antitumor activity against subcutaneous CR-LRB-009C xenografts; type: in vivo
Procedure: The human primary colon carcinoma CR-LRB-009C tumor model was established by implanting (SC) small tumor fragments and was maintained in SCID female mice using serial passages.
as §1, §2, §3

[9] = (2a) 75 mg/kg PO daily days 33-50
[10] = as single agents or used in combination
[11] = study 1, (2a) 50 mg/kg PO daily days 11-18
[12] = study 1, (2a) 75 mg/kg PO daily days 11-18
[13] = study 2, (2a) 50 mg/kg PO daily days 11-18
[14] = study 2, (2a) 75 mg/kg PO daily days 11-18
[15] = study 3, (2a) 50 mg/kg PO daily days 11-20
[16] = study 3, (2a) 75 mg/kg PO daily days 11-20
[17] = (2a) 75 mg/kg PO daily days 11-21

COc1ccc(Cl)c(Nc2nc3ccccc3nc2NS(=O)(=O)c2cccc(NC(=O)C(C)(C)N)c2)c1 [Compound (2a), N-(3-{[(3-{[2-chloro-5-(methoxy)phenyl]amino}quinoxalin-2-yl)amino]sulfonyl}phenyl)-2-methylalaninamide]
ΔT/ΔC at the end of study [1]: 36%
decrease of the Evans-Blue/Dextran-Fitc ratio compared to control [2]: −8%
Average body weight change in % per mouse at nadir [3, 9]: −9.2 (50) %
Drug death [3, 9]: 0/7
Median ΔT/ΔC in % day 50 [3, 9]: 53%
Regressions Complete [3, 9]: 0/7
Regressions Partial [3, 9]: 0/7
tolerability [3, 10]: tolerated, inducing some BWL but not reaching toxicity
stock solution chemically stable ([4]; in 1N HCl and water for injection, pH 3): 7 days
stock solution chemically stable ([4]; in water for injection): 7 days
% ΔT/ΔC [5]: 71.2%
tumor growth [6]: inhibits tumor growth
Average body weight change in % per mouse at nadir [7, 11]: −5.8 (18) %
Drug death [7, 11]: 0/7
Median ΔT/ΔC in % day 18 [7, 11]: 62%
Regressions Complete [7, 11]: 0/7
Regressions Partial [7, 11]: 0/7
Average body weight change in % per mouse at nadir [7, 12]: −8.3 (18) %
Drug death [7, 12]: 0/7
Median ΔT/ΔC in % day 18 [7, 12]: 80%
Regressions Complete [7, 12]: 0/7
Regressions Partial [7, 12]: 0/7
tolerability ([7]; study 1, as single agents or used in combination): well-tolerated, inducing minimal BWL
Average body weight change in % per mouse at nadir [7, 13]: −7.7 (18) %
Drug death [7, 13]: 0/7
Median ΔT/ΔC in % day 18 [7, 13]: 52%
Regressions Complete [7, 13]: 0/7
Regressions Partial [7, 13]: 0/7
Average body weight change in % per mouse at nadir [7, 14]: −6.7 (18) %
Drug death [7, 14]: 0/7
Median ΔT/ΔC in % day 18 [7, 14]: 56%
Regressions Complete [7, 14]: 0/7
Regressions Partial [7, 14]: 0/7
tolerability ([7]; study 2, as single agents): well-tolerated, inducing minimal BWL
Average body weight change in % per mouse at nadir [7, 15]: −7.8 (19) %
Drug death [7, 15]: 0/10
Median ΔT/ΔC in % day 20 [7, 15]: 66%
Regressions Complete [7, 15]: 0/10
Regressions Partial [7, 15]: 0/10
Average body weight change in % per mouse at nadir [7, 16]: −8.5 (20) %
Drug death [7, 16]: 0/10
Median ΔT/ΔC in % day 20 [7, 16]: 64%
Regressions Complete [7, 16]: 0/10
Regressions Partial [7, 16]: 0/10
tolerability ([7]; study 3, as single agents): well-tolerated, inducing minimal BWL
Average body weight change in % per mouse at nadir [8, 17]: −15.8 (21) %
Drug death [8, 17]: 0/7
Median ΔT/ΔC in % day 21 [8, 17]: 39%
Regressions Complete [8, 17]: 0/7
Regressions Partial [8, 17]: 0/7
tolerability [8, 10]: tolerated, inducing some BWL but not reaching toxicity
